The values that follow come from ChEMBL document CHEMBL1138996, “Biological evaluation of isothiazoloquinolones containing aromatic heterocycles at the 7-position: In vitro activity of a series of potent antibacterial agents that are effective against methicillin-resistant Staphylococcus aureus” (Bioorg Med Chem Lett, 2006).

≈ marks a conversion by molar mass, not a printed value. Where only a bound is given, the exact number is not on record here.

Assay [1] deals with Escherichia coli. As to the kind of experiment: Antibacterial activity against Escherichia coli ATCC 25922. It counts as functional.
Assay [2] deals with Staphylococcus aureus. The assay is described as follows: Antibacterial activity against Staphylococcus aureus ATCC 29213. It counts as functional.
Assay [3] deals with Staphylococcus aureus. As to the kind of experiment: Antibacterial activity against methicillin-resistant Staphylococcus aureus ATCC 700699. It counts as functional.
The target of assay [4] is DNA topoisomerase 4 subunit A (Staphylococcus aureus, UniProt P0C1U9). The assay is described as follows: Inhibitory activity against Staphylococcus aureus ATCC 29213 wild type Topo 4.
DNA topoisomerase 4 subunit A, sequence (P0C1U9 whole entry): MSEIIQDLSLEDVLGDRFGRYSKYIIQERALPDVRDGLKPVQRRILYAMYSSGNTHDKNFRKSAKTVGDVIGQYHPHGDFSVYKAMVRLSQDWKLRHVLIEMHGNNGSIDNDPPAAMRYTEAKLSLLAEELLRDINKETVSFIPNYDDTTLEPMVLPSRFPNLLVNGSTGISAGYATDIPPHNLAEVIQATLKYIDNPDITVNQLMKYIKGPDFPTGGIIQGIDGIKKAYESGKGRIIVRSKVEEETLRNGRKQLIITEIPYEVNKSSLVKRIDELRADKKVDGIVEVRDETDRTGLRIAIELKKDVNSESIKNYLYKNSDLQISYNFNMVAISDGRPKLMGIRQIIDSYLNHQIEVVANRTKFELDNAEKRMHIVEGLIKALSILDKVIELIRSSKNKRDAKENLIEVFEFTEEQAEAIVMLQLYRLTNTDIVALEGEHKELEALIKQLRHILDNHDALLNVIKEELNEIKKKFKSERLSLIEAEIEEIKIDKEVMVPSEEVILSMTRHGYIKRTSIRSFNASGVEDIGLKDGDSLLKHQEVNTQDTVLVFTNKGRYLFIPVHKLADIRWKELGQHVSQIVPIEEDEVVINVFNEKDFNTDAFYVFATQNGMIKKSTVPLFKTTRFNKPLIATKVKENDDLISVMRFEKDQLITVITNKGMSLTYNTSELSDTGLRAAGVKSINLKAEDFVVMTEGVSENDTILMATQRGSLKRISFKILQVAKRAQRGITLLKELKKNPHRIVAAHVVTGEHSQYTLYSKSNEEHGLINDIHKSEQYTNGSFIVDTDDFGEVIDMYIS
Assay [5] has as its system HEp-2. As to the kind of experiment: Cytotoxicity against Hep2 cell line. It counts as functional. The following applies: Homo sapiens.
Assay [6] concerns Enterococcus faecium. As to the kind of experiment: Antibacterial activity against Enterococcus faecium ATCC 49032. It counts as functional.
The subject of assay [7] is Enterococcus faecalis. As to the kind of experiment: Antibacterial activity against Enterococcus faecalis ATCC 29212. It counts as functional.
Assay [8] deals with Streptococcus pyogenes. As to the kind of experiment: Antibacterial activity against Streptococcus pyogenes ATCC 19615. It counts as functional.
Assay [9] relates to Streptococcus pneumoniae. The assay is described as follows: Antibacterial activity against Streptococcus pneumoniae ATCC 49619. It counts as functional.
For assay [10], the system named is Haemophilus influenzae. The assay is described as follows: Antibacterial activity against Haemophilus influenzae type b ACH-0056. It counts as functional.
Assay [11] relates to Moraxella catarrhalis. The assay is described as follows: Antibacterial activity against Moraxella catarrhalis ATCC 8176. It counts as functional.
Assay [12] relates to Stenotrophomonas maltophilia. As to the kind of experiment: Antibacterial activity against Stenotrophomonas maltophilia ATCC 13637. It counts as functional.
Assay [13] deals with Salmonella typhimurium. As to the kind of experiment: Antibacterial activity against Salmonella Typhimurium ATCC 14028. It counts as functional, Salmonella enterica subsp. enterica serovar Typhimurium. As to conditions: Salmonella enterica.
The subject of assay [14] is Klebsiella pneumoniae. The assay is described as follows: Antibacterial activity against Klebsiella pneumoniae ATCC 13883. It counts as functional.
Assay [15] has as its system Pseudomonas aeruginosa. The assay is described as follows: Antibacterial activity against Pseudomonas aeruginosa ATCC 27853. It counts as functional.

Regarding `Cc1cc(-c2cc3c(cc2F)c(=O)c2c(=O)[nH]sc2n3C2CC2)ccn1`, the MIC in assay [1] was found to be 0.059 µg/mL (≈ 0.161 µM); in [2], 0.004 µg/mL (≈ 0.0109 µM); in assay [3] it was 0.5 µg/mL (≈ 1.36 µM); in [6], 0.25 µg/mL (≈ 0.68 µM); in assay [7], 0.125 µg/mL (≈ 0.34 µM); in assay [8] it was 0.04 µg/mL (≈ 0.109 µM). In addition, the MIC came to 0.029 µg/mL (≈ 0.0789 µM) in assay [9]; 0.015 µg/mL (≈ 0.0408 µM) in assay [10]; 0.0037 µg/mL (≈ 0.0101 µM) in assay [11]; 1 µg/mL (≈ 2.72 µM) in [12]; 0.125 µg/mL (≈ 0.34 µM) in assay [13]; 0.125 µg/mL (≈ 0.34 µM) in assay [14]. For the same compound, the MIC in assay [15] was 2 µg/mL (≈ 5.44 µM). In assay [4], this compound had an IC50 of 26 µM. For the same compound, the CC50 in assay [5] stood at 36 µM.

For the compound `O=c1[nH]sc2c1c(=O)c1cc(F)c(-c3ccc(F)nc3)cc1n2C1CC1`, the MIC stood at 0.03 µg/mL (≈ 0.0808 µM) in assay [1]; 0.015 µg/mL (≈ 0.0404 µM) in assay [2]; 2 µg/mL (≈ 5.39 µM) in assay [3]; 0.11 µg/mL (≈ 0.296 µM) in assay [6]; 0.125 µg/mL (≈ 0.337 µM) in assay [7]; 0.059 µg/mL (≈ 0.159 µM) in assay [8]. In addition, the MIC was determined as 0.125 µg/mL (≈ 0.337 µM) in assay [9]; 0.03 µg/mL (≈ 0.0808 µM) in assay [10]; 0.0037 µg/mL (≈ 0.00996 µM) in [11]; 1 µg/mL (≈ 2.69 µM) in assay [12]; 0.125 µg/mL (≈ 0.337 µM) in assay [13]; 0.125 µg/mL (≈ 0.337 µM) in assay [14]. In [15], this compound yielded an MIC of 0.5 µg/mL (≈ 1.35 µM). In assay [4], 12 µM corresponded to half-maximal inhibition (IC50). Also, in assay [5], the CC50 was over 100 µM.

In the case of `COc1ncc(-c2cc3c(cc2F)c(=O)c2c(=O)[nH]sc2n3C2CC2)c(OC)n1`, the MIC in [1] amounted to 0.14 µg/mL (≈ 0.338 µM); in assay [2] it was 0.019 µg/mL (≈ 0.0458 µM); in assay [3], 1 µg/mL (≈ 2.41 µM); in [6], 0.17 µg/mL (≈ 0.41 µM); in [7], 0.058 µg/mL (≈ 0.14 µM); in assay [8] it was 0.079 µg/mL (≈ 0.191 µM). In addition, the MIC in assay [9] worked out at 0.079 µg/mL (≈ 0.191 µM); in [10], 0.14 µg/mL (≈ 0.338 µM); in assay [11], 0.021 µg/mL (≈ 0.0507 µM); in assay [12], 2 µg/mL (≈ 4.83 µM); in [13], 0.125 µg/mL (≈ 0.302 µM); in assay [14] it was 0.5 µg/mL (≈ 1.21 µM). This compound had an MIC in [15] of over 64 µg/mL. Moreover, in [4], the IC50 came out at 42 µM. Moreover, in assay [5], the CC50 was over 100 µM.

With `O=c1[nH]sc2c1c(=O)c1cc(F)c(-c3cccc4ncccc34)cc1n2C1CC1`, the MIC in assay [1] was determined as 0.016 µg/mL (≈ 0.0397 µM); in assay [2], 0.016 µg/mL (≈ 0.0397 µM); in [3], 2 µg/mL (≈ 4.96 µM); in [6], 0.25 µg/mL (≈ 0.62 µM); in assay [7] it was 0.125 µg/mL (≈ 0.31 µM); in [8] it was 0.25 µg/mL (≈ 0.62 µM). Also, the MIC in assay [9] was determined as 0.061 µg/mL (≈ 0.151 µM); in assay [10], 0.028 µg/mL (≈ 0.0694 µM); in [11] it was 0.0081 µg/mL (≈ 0.0201 µM); in assay [12], 4 µg/mL (≈ 9.91 µM); in [13] it was 0.5 µg/mL (≈ 1.24 µM); in assay [14], 0.5 µg/mL (≈ 1.24 µM). The same compound gave an MIC in assay [15] of 2 µg/mL (≈ 4.96 µM). In assay [4], half-maximal inhibition (IC50) required 33 µM.

As for `COc1c(N2C[C@@H]3CCCN[C@@H]3C2)c(F)cc2c(=O)c(C(=O)O)cn(C3CC3)c12` [MOXIFLOXACIN], the MIC in assay [1] was found to be 0.013 µg/mL (≈ 0.0324 µM); in assay [2] it was 0.061 µg/mL (≈ 0.152 µM); in assay [3], 2 µg/mL (≈ 4.98 µM); in [6], 0.125 µg/mL (≈ 0.311 µM); in [7], 0.125 µg/mL (≈ 0.311 µM); in [8], 0.061 µg/mL (≈ 0.152 µM). Besides, the MIC came out at 0.125 µg/mL (≈ 0.311 µM) in assay [9]; 0.013 µg/mL (≈ 0.0324 µM) in assay [10]; 0.061 µg/mL (≈ 0.152 µM) in assay [11]; 0.031 µg/mL (≈ 0.0772 µM) in assay [12]; 0.061 µg/mL (≈ 0.152 µM) in assay [13]; 0.031 µg/mL (≈ 0.0772 µM) in assay [14]. The MIC in assay [15] is 1 µg/mL (≈ 2.49 µM). Also, inhibition in assay [4] was half-maximal at 0.8 µM (IC50). This compound returned a CC50 in assay [5] of over 100 µM.

One may read the IC50 as the midpoint of a concentration-inhibition curve. Low readings indicate inhibition by little substance, high ones a need for much substance. Usually CC50 stands for the concentration that lowers cell viability or growth by half. Read a low CC50 as greater toxicity to the cells.
